“And” between values parts separate entries of the source, which are not always exact repeats. Identical values can stand only once. Peptide text beside a SMILES is read from it. * marks the point of attachment. Fmoc = O=C(OCC1c2ccccc2-c2ccccc21)*
Tests used:
legumain = target: T1, legumain (Mus musculus, UniProt O89017); test: Legumain assay with peptide 1 and Thioflavin T in buffer; assay type: biochemical
T1 construct: purchased Novus Biologicals
T1 sequence (O89017 18-325 limits assumed): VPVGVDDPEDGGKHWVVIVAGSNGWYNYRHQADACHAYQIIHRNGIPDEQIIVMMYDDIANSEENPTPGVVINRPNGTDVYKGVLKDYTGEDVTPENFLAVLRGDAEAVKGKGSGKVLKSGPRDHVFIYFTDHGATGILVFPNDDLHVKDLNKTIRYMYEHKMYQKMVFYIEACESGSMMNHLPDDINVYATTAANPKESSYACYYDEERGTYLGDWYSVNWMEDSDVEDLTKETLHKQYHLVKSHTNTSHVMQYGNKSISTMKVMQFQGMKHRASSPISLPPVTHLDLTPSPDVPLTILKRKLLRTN
Description: Legumain activation. To activate legumain, 5 μL of prolegumain solution (0.5 mg/mL in Tris buffer containing 10% glycerol) was mixed with 20 μL of activation buffer (50 mM Sodium Acetate, 100 mM NaCl, pH 4.0) and incubated at 37° C. for 2 h. It was then diluted in 225 μL of legumain assay buffer (50 mM MES, 250 mM NaCl, pH 5) to give a final legumain concentration of 10 μg/mL and immediately used in the assay.
Legumain assay. In a typical assay, peptide 1 was first dissolved in ultrapure water containing 25% DMSO at a peptide concentration of 10 mg/mL. It was then diluted in phosphate-buffered saline (PBS, pH 7.4, 10 mM) to give a peptide concentration of 2 mg/mL. Next, 50 μL of the peptide solution was mixed with 50 μL of MES buffer (50 mM MES, 250 mM NaCl, pH 5) containing activated legumain at different concentrations (0-2000 ng/mL) in a 96 well plate and the plate was incubated at 37° C. for 2 h. Note that the final peptide concentration was 1 mg/mL and final legumain concentrations were between 0 and 1000 ng/mL. Finally, 10 μL of ThT solution (1 mM, in ultrapure water) was added to each well, and ThT fluorescence was measured using a Spark 20M microplate reader (Tecan) after 15-30 min incubation at room temperature.
In the peptide concentration experiment, appropriate amounts of peptide 1 stock solution (10 mg/mL) were diluted in PBS and mixed with the MES buffer containing legumain, as described above, to give the final peptide concentrations between 0.05 and 1 mg/mL in the assay. In kinetic studies, ThT solution was mixed with the peptide immediately before the addition of activated legumain, and the plate was incubated in a Spark 20M microplate reader (Tecan) at 37° C. for 3 hours, and ThT fluorescence was recorded every 4 minutes. For the inhibitor experiment, the legumain inhibitor, RR-11a, was first dissolved in DMSO (1 mM), and appropriate amounts of inhibitor were incubated with legumain for about 1.0 hour at room temperature in 96 well plates. Finally, the legumain solutions incubated with different amounts of inhibitor were mixed with the peptide 1 solution, and the assay was performed as described above. For the experiments in plasma, 10 μL or 20 μL of PBS in the wells were replaced with human plasma to achieve final plasma concentrations of 10% and 20%, respectively.

[1] = CD time-course of structures formed by peptide 1 with legumain; assay type: physicochemical; settings: after two weeks with legumain, 37° C.
Description: A time-course study of the legumain assay was also run. Peptide 1 was dissolved at 0.333 mg/mL in low far-UV absorbance CD buffer, pH 5.5-6. Legumain was activated for abut 2 hours at 37° C. in far-UV absorbance CD buffer, pH 4. Spectra were acquired from 260-190 nm with 1.0 nm band-width, 20 nm/min scan speed, and 2 sec integration time. A 5 minute acquisition cycle was automatically run 26 times, followed by manual acquisitions at 28 hours, 53 hours, 78 hours, and 14 days. The temperature was maintained at 37° C. throughout. Legumain (333 ng/mL) was mixed with peptide 1 just prior to acquisition of the second spectrum (the 0 min time point). All spectra were subsequently background subtracted and then smoothed using a Savitsky-Golay filter. Data are presented in units of molar circular dichroism, Δε(M^−1 cm^−1).

fluorescence intensity at 24 hours compared with the intensity at two hours (legumain; 1000 ng/mL legumain): about 2.5
enhancement in the ThT emission intensity (legumain; 1000 ng/mL legumain, about two hours, peptide 1 1 mg/mL, ThT 90 μM): about 32 fold
enhancement in ThT emission (legumain; 1 mg/mL peptide concentration, legumain 500 ng/mL): 28 fold
fluorescence enhancement (legumain; legumain 10.0 ng/mL, about two hours, ThT 90 μM): about 1.3 fold
fluorescence enhancement (legumain; legumain 25.0 ng/mL, about two hours, ThT 90 μM): about 3 fold
limit of detection (LOD) (legumain; legumain, buffer): about 12 ng/mL and 0.21 nM
limit of quantification (LOQ) (legumain; legumain, buffer): about 25 ng/mL and 0.45 nM
enhancement in the ThT fluorescence in the absence of legumain (legumain; no legumain, up to the highest peptide concentration (1.0 mg/mL)): no significant enhancement
enhancement in the ThT emission (legumain; peptide 1 1.0 mg/mL, ThT 90 μM, no legumain): 1.4 fold
ThT emission intensity increase (legumain; peptide concentration below 0.25 mg/mL, legumain 500 ng/mL): 1.3-1.4 fold
stability of the formed structures (CD spectrum) [1]: long-term stability
SMILES: C[C@H](NC(=O)[C@H](C)NC(=O)[C@H](CCC(=O)O)NC(=O)[C@H](Cc1ccccc1)NC(=O)[C@H](CCCCN)NC(=O)[C@H](Cc1ccccc1)NC(=O)OCC1c2ccccc2-c2ccccc21)C(=O)N[C@@H](CC(N)=O)C(=O)NCC(=O)N[C@@H](CCC(=O)O)C(=O)N[C@@H](CCC(=O)O)C(=O)NCC(=O)N[C@@H](CO)C(=O)NCC(=O)N[C@@H](CCC(=O)O)C(=O)N[C@@H](CCC(=O)O)C(=O)O [peptide 1] (Fmoc-FKFEAANGEEGSGEE-OH; C-terminus assumed)
